Assay results from PubChem BioAssay (NCI).
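The compound was tested at five concentrations on cells cultured in 96-well plates, with a 48-hour exposure period. At the GI50, growth is halved. TGI: total growth inhibition.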

Experiments:
Experiment in all cases: growth of human tumour cells (NCI), 48 h
SK-MEL-5 melanoma = tested on: SK-MEL-5 melanoma
NCI-H23 lung = tested on: NCI-H23 lung
EKVX NSCLC = tested on: EKVX NSCLC
UACC-62 melanoma = tested on: UACC-62 melanoma
SW-620 colon = tested on: SW-620 colon
RPMI-8226 leukemia = tested on: RPMI-8226 leukemia
CCRF-CEM leukemia = tested on: CCRF-CEM leukemia
BT-549 breast = tested on: BT-549 breast
A549 NSCLC = tested on: A549 NSCLC
KM12 colon = tested on: KM12 colon

Row | SMILES | TGI (SK-MEL-5 melanoma) [µM] | TGI (NCI-H23 lung) [µM] | TGI (EKVX NSCLC) [µM] | TGI (UACC-62 melanoma) [µM] | TGI (SW-620 colon) [µM] | TGI (RPMI-8226 leukemia) [µM] | TGI (CCRF-CEM leukemia) [µM] | TGI (BT-549 breast) [µM] | TGI (A549 NSCLC) [µM] | TGI (KM12 colon) [µM] | GI50 (SK-MEL-5 melanoma) [µM] | GI50 (NCI-H23 lung) [µM] | GI50 (EKVX NSCLC) [µM] | GI50 (UACC-62 melanoma) [µM] | GI50 (SW-620 colon) [µM] | GI50 (RPMI-8226 leukemia) [µM] | GI50 (A549 NSCLC) [µM] | GI50 (KM12 colon) [µM] | GI50 (CCRF-CEM leukemia) [µM]
1 | Oc1ccc2ccccc2c1N=Nc1ccc(N=Nc2ccccc2)cc1 | > 100 | > 100 | > 100 | > 100 | > 100 | > 100 | > 100 | > 100 | > 100 | > 100 |  |  |  |  |  |  |  |  | 
2 | C#CCCCCC#CC1CCCC1C1=CC(=O)c2ccccc21 (centres undefined) | 20.2 | 24.5 | 28 | 6.44 | 6.39 | 6.46 |  |  | 30 | 19.6 |  |  |  |  |  |  |  |  | 
3 | CCCNCC(O)/C=C/[Si](C)(C)C (centres undefined) (tested in a mixture with another compound) | > 100 | > 100 | > 100 | > 100 | > 100 | > 100 | > 100 |  | > 100 | > 100 |  |  |  |  |  |  |  |  | 
4 | CCCCCCc1ccc(O)cc1O | > 79.1 | > 100 | > 100 | > 79.1 | > 100 | > 77 | > 100 |  | > 100 | > 100 |  |  |  |  |  |  |  |  | 
5 | Cc1ccccc1N=Nc1ccc(N=Nc2c(O)ccc3cc(S(=O)(=O)O)cc(S(=O)(=O)O)c23)c(C)c1 | > 100 | > 100 | > 100 | > 100 | > 100 | > 100 | > 100 | > 100 | > 100 | > 100 |  |  |  |  |  |  |  |  | 
6 | NC(=O)c1nnc2cc(F)c(F)cc2c1N | > 100 | > 100 | > 100 | > 100 | > 100 | > 100 | > 100 | 45.6 | > 100 | > 100 |  |  |  |  |  |  |  |  | 
7 | C/C=C1/CN2CC[C@@H]3c4ccccc4N4[C@H](C(=O)OC)[C@H]1C[C@H]2[C@]34/C=C/C1=COC[C@@H]2[C@H]1C[C@H]1c3c(c4ccccc4n3C)C[C@@H]2N1C | 7.48 | 8.43 | 6.17 | 9.29 | 7.6 | 8.33 | 9.49 | 8.05 | 8.28 |  |  |  |  |  |  |  |  |  | 
8 | CC(=O)O[C@H]1CC[C@]2(C)[C@H]3C(=O)C=C4[C@@H]5C[C@](C)(C(=O)N6CCCNCC6)CC[C@]5(C)CC[C@@]4(C)[C@]3(C)CC[C@H]2C1(C)C | 4.42 | 3.37 | 3.15 | 3.13 | 3.22 | 4.01 |  |  | 4.67 | 3.21 | 2.1 | 1.73 | 1.67 | 1.69 | 1.67 | 1.46 | 1.82 | 1.71 | 
9 | O=[N+]([O-])/C=C/c1cccc(F)c1 | 18.6 | 17.9 | 7.45 | 22.5 | 8.88 | 4.14 | 5.5 | 4.91 | > 100 | 10.3 |  |  |  |  |  |  |  |  | 
10 | O=C(N/N=C/c1cc(Br)cc(Br)c1[O-])c1ccccc1O.O=C(N/N=C/c1cc(Br)cc(Br)c1[O-])c1ccccc1O.[Cl-].[Fe+3] | 12.3 |  | 27.8 | 7.99 | 14 |  | > 100 |  | 36.8 | 81.6 |  |  |  |  |  |  |  |  | 38.6
